{"source": "patent US7700553B2", "about": "“Selective inhibition of NF-κB activation by peptides designed to disrupt nemo oligomerization” (priority 2003, dated 2010)", "key": {"lymphocytes B": {"tested_on": "lymphocytes B", "experiment": "Cytotoxicity by MTS assay, microscope observation and FACS", "details": "for Cytotoxicity MTS Assay: MTS cell proliferation assay (Promega); for cellular proportion of cell death by FACS: pre-B lymphocytes, 20 μM"}, "70Z/3-C3 cells": {"tested_on": "70Z/3-C3 cells", "experiment": "FACS analysis of cellular uptake of BODIPY-labeled peptides", "type": "cell-based, murine", "details": "2 μM BODIPY-peptide, 2 h at 37° C.", "procedure": "All experiments were performed in duplicates.\nThe uptake of BODIPY labeled NEMO peptides into living cells were monitored by fluorescence activated cell sorting (FACS) which is a conventional tool used to quantify cellular internalization.\nThen present inventors next investigated the kinetic and concentration dependency of cellular uptake for the Ant-CC2 BODIPY peptide keeping in mind that the transduction of other NEMO peptides should occur in a similar fashion (FIGS. 2B and 2C)."}, "[1]": {"tested_on": "human retinoblastoma cell lines Y79", "type": "cell-based", "details": "for Y79 cell died: 5 μM", "procedure": "FIG. 8: Cell Death Induced in the Retinoblastoma Cell Line Y79 by Ant-CC2 and Ant-LZ Peptides Rb cell line Y79 were treated with various concentration of the Ant-CC2 (WT) (filled squares) or Ant-CC2 (Mu) (open squares) (A), or Ant-LZ (WT) (filled circles), or Ant-LZ (Mu) (open circles) (B), or Ant peptide (open triangle) (C) for 3 hours (A, B) or 16 hours (C). Cell survival was then evaluated using the MTS assay as described in “Materials and methods”\nThe detection of cell death was performed using the MTS assay provided by Promega (CellTiter 96® AQueous one solution cell proliferation assay). Briefly, 0.3×10^6 Y79 cells in 450 μl were treated with 50 μl of the wild type Ant-CC2 and Ant-LZ peptides (0.1 to 20 μM) or their mutants Ant-CC2 (Mu), Ant-LZ (Mu) or the Ant or left untreated in serum-free RPMI medium at 37° C. After an incubation of […], an aliquot of the cell suspension (200 μl, 0.12×10^6 cells), was then transferee in 96-well plates and mixed with the MTS solution (40 μl) containing the MTS compound and the phenazine ethosulfate. Two hours after, the quantity of formazan produced by viable cells was measured using an automated microplate reader (Bio-TeK Instruments, INC) at 490 nm absorbance. Cell survival was observed under microscope and was estimated as a percentage of the value of untreated controls. The background of the reaction was determined by mixing the MTS solution with cell-free RPMI medium. To increase the sensitivity of the cell death assay, the present inventors used peptides devoid of BODIPY-labeling because the absorption spectra of the fluorophor overlaps with that of the formazan product. All experiments were repeated twice and each experiment condition was repeated in duplicate wells in each experiment.\nGiven that specific NF-κB inhibition may trigger apoptosis of cancer cells, the present inventors examined the effects of both cell-permeable Ant-LZ and Ant-CC2 peptides on human retinoblastoma cell viability. In these experiments, the present inventors used NEMO-derived polypeptides without a N-terminal BODIPY labeling to prevent any interference with the MTS assay (see “Materials and Methods”). […] The effect of the Ant-LZ peptide on cell death was stronger than that of the Ant-CC2. This induction of cell death was significant since Rb cell survival was 20% and 65% with the Ant-LZ and the Ant-CC2 peptides respectively when cancer cells were treated for 3 hours at a 20 μM concentration. […] In contrast, 80% and 55% of Y79 cell died in the presence of Ant-LZ and Ant-CC2 respectively at 5 μM concentration (FIG. 8C)."}, "[2]": {"tested_on": "LPS-induced NF-κB activation in 70Z/3-C3 cells", "experiment": "NF-κB inhibition assay, first procedure (NF-κB dependent β-galactosidase reporter, LPS stimulation)", "type": "cell-based, murine", "details": "for effect on LPS-induced NF-κB activation (in words): 20 μM peptide, 2 h, then 5 h LPS; for effect on LPS-induced NF-κB activation of peptides not fused to antennapedia (in words): 2 h peptide, then 3 h LPS (FIG. 3D)", "method": "The resulting cell line, 70Z3-C3, was incubated for 2 hours in the absence or in the presence of 20 μM of antennapedia peptide (Ant), or BODIPY-labeled antennapedia peptide (BODIPY-Ant), or BODIPY-labeled antennapedia peptide coupled to CC2 (BODIPY-Ant-CC2) or LZ (BODIPY-Ant-LZ) peptides, After peptide internalization, cells were treated for 5 hours with LPS (3 μg/ml, (+) in left panel) or untreated (right panel and (−) in left panel) and the NF-κB activity was measured by β-galactosidase assay. […] Cells were treated as in (A) but with different concentration of peptide as indicated. The potential of each peptide to inhibit LPS-induced NF-κB activation was measured by determining the IC50 value that correspond to 50% inhibition of LPS-induced NF-κB activation as compared to the control (no peptide) (C). […] Control (no peptide) or CC2, or LZ peptides, with (BODIPY-ANT-CC2, BODIPY-ANT-LZ) or without the antennapedia sequence at the N-terminus (CC2, LZ) were incubated for 2 hours with 70Z3-C3 cells followed with (+) or without (−) the LPS-treatment for 3 hours. NF-κB activity was then measured by β-galactosidase assay.\nIn a first procedure 2.2×10^5 70Z/3-C3 cells in 220 μl of RPMI 1640 supplemented with 10% fetal calf serum (FCS) and 50 μM β-mercaptoethanol were placed in a 96-well plate and incubated with various concentrations of peptide (0 to 20 μM) at 37° C. in 5% CO2 incubator. After two hours an equal portion (100 μl) of each cell sample transferred in two wells containing each 10^5 cells. One aliquot of cells was then treated for 5 hours with lipopolysaccharides from Salmonella abortus (Sigma) at 0.5 μg/ml final concentration, and the other one left-treated. After 5 hours, cells were centrifuged at 400×g for 5 min at room temperature and the cell pellets were washed three times with cold PBS (250 μl) by centrifugation. Cells were then lysed in the lysis buffer (25 mM tris-phosphate buffer at pH 7.8 containing 8 mM magnesium chloride, 1 mM dithioerythreitol, 1% Triton X-100, 15% glycerol and a protease inhibitor mixture (Roche)), and samples were centrifuged at 4° C. for 20 min to clarify the lysate. The supernatant was then kept on ice, and 30 μl was then assayed to measure the β-galactosidase activity with a plate luminometer (Berthold) using the galacton-star as chemiluminescent substrate (BD Biosciences Clontech, Bronstein et al., 1989). Background of reaction was measured by mixing for 1 hour 30 μl of lysis buffer with the reaction buffer (196 μl) and the galacton-star substrate (4 μl) provided by BD Biosciences."}, "[3]": {"experiment": "Kd and cooperativity indice of NLM peptides by Hill coefficient calculation", "type": "binding", "details": "for Kd: Hill equation fit, read-out: dissociation constant Kd", "excerpt": "The present inventors compared NLM-DR to the corresponding NLM peptide by measuring the respective cooperativity indices, which evidence an advantage of NLM-DR mutated peptide over the wild-type.\nThe calculation of the “cooperativity indice” by means of Hill coefficient is based on the following formula Boundmax×L^n/(KD^n+L^n)\nBoundmax is the maximum concentration of the bound ligand,\nL is the concentration of the free ligand,\nn is the cooperativity indice and\nKD, is the affinity constant of the ligand by the protein.\nIf these values were to be compared to those obtained from the curves without accounting for cooperativity, the affinity of NLM-DR peptide would be 75 times higher than the affinity of wild-type NLM peptide."}, "[4]": {"details": "longer treatment (FIG. 8C, 16 hours)"}}, "note": "Ends that are not written are not given here. Peptide text beside a SMILES is read from it. * marks the point of attachment. BODIPYFLEthylmaleimide = Cc1cc(C)n2c1C=C1C=CC(CCC(=O)NCCN3C(=O)CC(*)C3=O)=[N+]1[B-]2(F)F; BODIPY = not defined here; Cam = NC(=O)C*"}
{"molecule": "CC[C@H](C)[C@H](NC(=O)[C@H](CC(=O)O)NC(=O)[C@H](C)NC(=O)[C@H](CCC(N)=O)NC(=O)[C@H](C)NC(=O)[C@H](CCCCN)NC(=O)[C@H](CC(C)C)NC(=O)[C@H](CCCNC(=N)N)NC(=O)[C@H](CCCNC(=N)N)NC(=O)[C@H](CCCNC(=N)N)NC(=O)[C@H](CCC(N)=O)NC(=O)[C@H](CCCNC(=N)N)NC(=O)[C@H](CCCNC(=N)N)NC(=O)[C@H](CCCCN)NC(=O)[C@H](CCCCN)NC(=O)[C@H](CCCNC(=N)N)NC(=O)CNC(=O)[C@H](Cc1ccc(O)cc1)NC(=O)[C@H](CSC1CC(=O)N(CCNC(=O)CCC2=[N+]3C(=Cc4c(C)cc(C)n4[B-]3(F)F)C=C2)C1=O)NC(C)=O)C(=O)N[C@@H](Cc1ccc(O)cc1)C(=O)N[C@@H](CCCCN)C(=O)N[C@@H](C)C(=O)N[C@@H](CCCNC(=N)N)C(=O)N[C@@H](Cc1ccccc1)C(=O)N[C@@H](CCC(N)=O)C(=O)N[C@@H](C)C(=O)N[C@@H](CCC(=O)O)C(=O)N[C@@H](CCCNC(=N)N)C(=O)N[C@@H](Cc1c[nH]cn1)C(=O)N[C@@H](C)C(=O)N[C@@H](CCCNC(=N)N)C(=O)N[C@@H](CCC(=O)O)C(=O)N[C@@H](CCCCN)C(N)=O", "note": "(stereo partly shown) [BODIPY-TAT-NLM-DR] (Ac-C(BODIPYFLEthylmaleimide)YGRKKRRQRRRLKAQADIYKARFQAERHAREK-NH2)", "values": [{"measurement": "Cytotoxicity Cell morphology FACS", "setting": "lymphocytes B", "value": "no"}, {"measurement": "Cytotoxicity MTS Assay", "setting": "lymphocytes B", "value": "no"}, {"measurement": "Cytotoxicity Cell morphology Microscope", "setting": "lymphocytes B", "value": "no"}]}
{"molecule": "Ac-C(Cam)RQIKIWFQNRRMKWKKSKGMQLEDLRQQLQQAEEALVAKQELIDKLKEEAEQHKIV-NH2 [Ant-CC2]", "values": [{"measurement": "proportion of cells transduced", "setting": "70Z/3-C3 cells", "value": 100, "unit": "%"}, {"measurement": "Y79 cell died", "setting": "[1]; [4]", "value": 55, "unit": "%"}, {"measurement": "cellular proportion of cell death by FACS", "setting": "lymphocytes B; absence of stimuli", "value": 9, "unit": "%"}, {"measurement": "cellular proportion of cell death by FACS", "setting": "lymphocytes B; after LPS stimulation", "value": 13, "unit": "%"}]}
{"molecule": "Ac-CRQIKIWFQNRRMKWKKLKAQADIYKADFQAERHAREKLVEKKEYLQEQLEQLQREFNKL-NH2 [Ant-LZ]", "values": [{"measurement": "proportion of cells transduced", "setting": "70Z/3-C3 cells", "value": 100, "unit": "%"}, {"measurement": "Y79 cell died", "setting": "[1]; [4]", "value": 80, "unit": "%"}]}
{"molecule": "Ant-CC2 (Mu): mutant Ant-CC2 devoid of BODIPY-labeling (sequence of SEQ ID NO: 4) (Ac-CRQIKIWFQNRRMKWKKSKGMQLEDLRQQGQQAEEAGVAKQELGDKLKEEAEQHKIV-NH2; not fully specified (residue 1))", "values": [{"measurement": "proportion of cells transduced", "setting": "70Z/3-C3 cells", "value": 100, "unit": "%"}, {"measurement": "induction of cell death (in words)", "setting": "[1]; Y79 cells, 3 hours, mutant peptides", "value": "did not induce concentration cell death"}]}
{"molecule": "Ant-LZ (Mu): mutant Ant-LZ devoid of BODIPY-labeling (sequence of SEQ ID NO: 8) (Ac-CRQIKIWFQNRRMKWKKLKAQADIYKADFQAERHAREKLVEKKEYSQEQLEQSQREFNKL-NH2; not fully specified (residue 1))", "values": [{"measurement": "proportion of cells transduced", "setting": "70Z/3-C3 cells", "value": 100, "unit": "%"}]}
{"molecule": "Ant: third helix of the Antennapedia/penetratin protein, internalization peptide (SEQ ID NO: 1), without BODIPY label (CRQIKIWFQNRRMKWKK) [reference compound]", "values": [{"measurement": "effect on LPS-induced NF-κB activation (in words)", "setting": "[2]", "value": "same level of NF-κB activation as the control"}, {"measurement": "effect on cell survival (in words)", "setting": "[1]; Y79 cells, longer treatment (FIG. 8C, 16 hours)", "value": "did not affect cell survival"}]}
{"molecule": "B-CRQIKIWFQNRRMKWKK ({BODIPY}-CRQIKIWFQNRRMKWKK; reading uncertain) [BODIPY-Ant, reference compound]", "values": [{"measurement": "effect on LPS-induced NF-κB activation (in words)", "setting": "[2]", "value": "same level of NF-κB activation as the control"}]}
{"molecule": "B-CRQIKIWFQNRRMKWKKLAQADIYKARFQAERHAREK (CRQIKIWFQNRRMKWKKLKAQADIYKARFQAERHAREK; not fully specified (N-terminus)) [BODIPY-Ant-NLM-DR]", "values": [{"measurement": "Cytotoxicity Cell morphology FACS", "setting": "lymphocytes B", "value": "+"}, {"measurement": "Cytotoxicity MTS Assay", "setting": "lymphocytes B", "value": "no"}, {"measurement": "Cytotoxicity Cell morphology Microscope", "setting": "lymphocytes B", "value": "+"}]}
{"molecule": "B-CRRRRRRRLKAQAKIYKARFQAERHAREK [BODIPY-R7-NLM-DR] (CRRRRRRRLKAQADIYKARFQAERHAREK; not fully specified (N-terminus))", "values": [{"measurement": "Cytotoxicity Cell morphology FACS", "setting": "lymphocytes B", "value": "no"}, {"measurement": "Cytotoxicity Cell morphology Microscope", "setting": "lymphocytes B", "value": "no"}]}
{"molecule": "B-CRRRRRRRLKAQAKIYKARFQAERHAREK [BODIPY-R9-NLM-DR] (CRRRRRRRRRLKAQADIYKARFQAERHAREK; not fully specified (N-terminus))", "values": [{"measurement": "Cytotoxicity Cell morphology FACS", "setting": "lymphocytes B", "value": "no"}, {"measurement": "Cytotoxicity MTS Assay", "setting": "lymphocytes B", "value": "no"}, {"measurement": "Cytotoxicity Cell morphology Microscope", "setting": "lymphocytes B", "value": "no"}]}
{"molecule": "LKAQADIYKADFQAERHAREKLVEKKEYLQEQLEQLQREFNKL [LZ (WT)]", "values": [{"measurement": "effect on LPS-induced NF-κB activation of peptides not fused to antennapedia (in words)", "setting": "[2]", "value": "same level of activation as the control"}]}
{"molecule": "LKAQADIYKARFQAERHAREK [NLM-DR]", "values": [{"measurement": "Kd", "setting": "[3]", "value": 170, "unit": "µM"}, {"measurement": "affinity of NLM-DR peptide relative to wild-type NLM peptide", "setting": "[3]; values compared without accounting for cooperativity", "value": 75, "unit": "times"}]}
{"molecule": "NLM: corresponding wild type NLM peptide covering the same 21 amino acid range as NLM-DR (LKAQADIYKADFQAERHAREK-NH2; not fully specified (N-terminus))", "values": [{"measurement": "Kd", "setting": "[3]", "value": 240, "unit": "µM"}]}
{"molecule": "SKGMQLEDLRQQLQQAEEALVAKQELIDKLKEEAEQHKIV [CC2 (WT)]", "values": [{"measurement": "effect on LPS-induced NF-κB activation of peptides not fused to antennapedia (in words)", "setting": "[2]", "value": "same level of activation as the control"}]}
